According to patent US9611251B2, “Substituted piperidine compounds and their use as orexin receptor modulators” (Janssen Pharmaceutica NV, priority 2013, dated 2017):
Where a name gives a salt, the structure may show the parent alone. Read-outs that look alike come from different tables or passages of the source.

Experiments:
human orexin 1 receptor = human orexin 1 receptor (Homo sapiens, UniProt O43613); assay: Human orexin 1 receptor radioligand binding
Method: The in vitro affinity of the compounds of the invention for the rat/human orexin 1 and human orexin 2 receptors was determined by competitive radioligand binding using [^3H](1-(5-(2-fluoro-phenyl)-2-methyl-thiazol-4-yl)-1-((S)-2-(5-phenyl-(1,3,4)oxadiazol-2-ylmethyl)-pyrrolidin-1-yl)-methanone) (Langmead et al., 2004) and [^3H]EMPA (n-ethyl-2[96-methoxypyridin-3-yl)-(toluene-2-sulfonyl)-amino]-N-pyridin-3-ylmethyl acetamide), respectively (Langmead et al., 2004, British Journal of Pharmacology 141:340-346; Malherbe et al., 2004, British Journal of Pharmacology 156:1326-41).
(§1) Data are analyzed using pc-Sandy macro and graphed on Graphpad Prism 5. For analysis, each concentration point is averaged from triplicate values and the averaged values are plotted on Graphpad Prism. The IC50 was determined by applying the following equation (GraphPad Prism 5.0, SanDiego) for one site competition where X=log (concentration) and Y=specific binding. Top denotes the total [^3H]-(1-(5-(2-fluoro-phenyl)-2-methyl-thiazol-4-yl)-1-((S)-2-(5-phenyl-(1,3,4)oxadiazol-2-ylmethyl)-pyrrolidin-1-yl)-methanone) binding, bottom denotes the nonspecific [^3H]-(1-(5-(2-fluoro-phenyl)-2-methyl-thiazol-4-yl)-1-((S)-2-(5-phenyl-(1,3,4)oxadiazol-2-ylmethyl)-pyrrolidin-1-yl)-methanone) binding. Graphpad Prism calculates Ki value from IC50 and the pre-determined Kd values for [^3H]-(1-(5-(2-fluoro-phenyl)-2-methyl-thiazol-4-yl)-1-((S)-2-(5-phenyl-(1,3,4)oxadiazol-2-ylmethyl)-pyrrolidin-1-yl)-methanone) and [3H]-EMPA. The Ki for each compound is then uploaded into 3DX. Each run comprises individual compounds in triplicate.
(§2) Rat and Human Orexin 1 Receptor Radioligand Binding Studies
Human Embryonic Kidney 293 cells (HEK293) stably expressing rat orexin 1 receptor (Genebank accession number NM_001525) or Chinese ovary cells (CHO) stably expressing human orexin 1 receptor (Genebank accession number NM_001526) were grown to confluency in DMEM (Hyclone, cat #SH30022), 10% FBS, 1×Pen/Strep, 1× sodium pyruvate, 10 mM HEPES, 600 μg/mL G418 and DMEM/F12 (Gibco, Cat #11039), 10% FBS, 1×Pen/Strep, 600 μg/mL G418 media, respectively on 150 cm^2 tissue culture plates, washed with 5 mM EDTA in PBS (HyClone Dulbecco's Phosphate Buffered Saline 1× with Calcium and Magnesium, Cat #SH30264.01, hereafter referred to simply as PBS) and scraped into 50 ml tubes. After centrifugation (2K×G, 5 min at 4° C.), the supernatant was aspirated and the pellets frozen and stored at −80° C. Cells were resuspended in PBS in the presence of 1 tablet of protease inhibitor cocktail (Roche, Cat. #11836145001) per 50 mL. Each cell pellet from a 15 cm plate was resuspended in 10 mL, stored on ice, and homogenized for 45 sec prior to addition to the reactions. Competition binding experiments in 96 well polypropylene plates were performed using [^3H]-(1-(5-(2-fluoro-phenyl)-2-methyl-thiazol-4-yl)-1-((S)-2-(5-phenyl-(1,3,4)oxadiazol-2-ylmethyl)-pyrrolidin-1-yl)-methanone) (Moraveck Corporation, specific activity=35.3 Ci/mmol), diluted to a 10 nM concentration in PBS (4 nM final). […] The final concentration of DMSO in the reactions is equal to or less than 0.1%. Total and nonspecific binding was determined in the absence and presence of 10 μM almorexant. The total volume of each reaction is 200 μL (20 μL of diluted compounds, 80 μL of [^3H]-(1-(5-(2-fluoro-phenyl)-2-methyl-thiazol-4-yl)-1-((S)-2-(5-phenyl-(1,3,4)oxadiazol-2-ylmethyl)-pyrrolidin-1-yl)-methanone) diluted in PBS and 100 μL of the cell suspension). Reactions were run for 60 min at room temperature and terminated by filtration through GF/C filter plates (PerkinElmer, Cat. #6005174) presoaked in 0.3% polyethylenimine using the cell harvester (PerkinElmer Filtermate). The plates were washed 3 times by aspirating 30 ml PBS through the plates. Plates were dried in 55° C. oven for 60 min, scintillation fluid was added, and the radioactivity was counted on a Topcount (Packard).

rat orexin 1 receptor = rat orexin 1 receptor (Rattus norvegicus, UniProt P56718); assay: Rat orexin 1 receptor radioligand binding
Method: as §1, §2
After centrifugation (2K×G, 5 min at 4° C.), the supernatant was aspirated and the pellets frozen and stored at −80° C. […] Each cell pellet from a 15 cm plate was resuspended in 10 mL, stored on ice, and homogenized for 45 sec prior to addition to the reactions. Competition binding experiments in 96 well polypropylene plates were performed using [^3H]-(1-(5-(2-fluoro-phenyl)-2-methyl-thiazol-4-yl)-1-((S)-2-(5-phenyl-(1,3,4)oxadiazol-2-ylmethyl)-pyrrolidin-1-yl)-methanone) (Moraveck Corporation, specific activity=35.3 Ci/mmol), diluted to a 10 nM concentration in PBS (4 nM final). […] The final concentration of DMSO in the reactions is equal to or less than 0.1%. Total and nonspecific binding was determined in the absence and presence of 10 μM almorexant. The total volume of each reaction is 200 μL (20 μL of diluted compounds, 80 μL of [^3H]-(1-(5-(2-fluoro-phenyl)-2-methyl-thiazol-4-yl)-1-((S)-2-(5-phenyl-(1,3,4)oxadiazol-2-ylmethyl)-pyrrolidin-1-yl)-methanone) diluted in PBS and 100 μL of the cell suspension). […] The plates were washed 3 times by aspirating 30 ml PBS through the plates. Plates were dried in 55° C. oven for 60 min, scintillation fluid was added, and the radioactivity was counted on a Topcount (Packard).

human orexin 2 receptor = human orexin 2 receptor (Homo sapiens (Human), UniProt O43614); assay: Human orexin 2 receptor radioligand binding ([3H]-EMPA); settings: averages of 2-20 runs, read-out: hOX2 Ki
Method: as §1
Human Orexin 2 Receptor Radioligand Binding Studies
HEK293 stably expressing human orexin 2 receptor (Genebank accession number NM_001526) were grown to confluency in DMEM (Hyclone, cat #SH30022), 10% FBS, 1×Pen/Strep, 1× NaPyruvate, 10 mM HEPES, 600 ug/ml G418 media on 150 cm^2 tissue culture plates, washed with 5 mM EDTA in PBS (HyClone Dulbecco's Phosphate Buffered Saline 1× with Calcium and Magnesium, Cat #SH30264.01, hereafter referred to simply as PBS) and scraped into 50 ml tubes. After centrifugation (2K×G, 5 min at 4° C.), the supernatant was aspirated and the pellets frozen and stored at −80° C. […] Each cell pellet from a 15 cm plate was resuspended in 10 mL, stored on ice, and homogenized for 45 sec just prior to addition to the reactions. Competition binding experiments in 96 well polypropylene plates were performed using [^3H]-EMPA (Moraveck Corporation, specific activity=29.6 Ci/mmol), diluted to a 5 nM concentration in PBS (2 nM final concentration). […] The final concentration of DMSO in the reactions is equal to or less than 0.1%. Total and nonspecific binding was determined in the absence and presence of 10 μM almorexant. The total volume of each reaction is 200 μL (20 μL of diluted compounds, 80 μL of [^3H]-EMPA diluted in PBS and 100 μL of the cell suspension). […] The plates were washed 3 times by aspirating 30 ml PBS through the plates. Plates were dried in 55° C. oven for 60 min, scintillation fluid was added, and the radioactivity was counted on a Topcount (Packard).

[1] = rat orexin 1 receptor radioligand binding, averages of 2-20 runs, read-out: rOX1 Ki

human orexin 2 receptor, sequence (O43614 whole entry): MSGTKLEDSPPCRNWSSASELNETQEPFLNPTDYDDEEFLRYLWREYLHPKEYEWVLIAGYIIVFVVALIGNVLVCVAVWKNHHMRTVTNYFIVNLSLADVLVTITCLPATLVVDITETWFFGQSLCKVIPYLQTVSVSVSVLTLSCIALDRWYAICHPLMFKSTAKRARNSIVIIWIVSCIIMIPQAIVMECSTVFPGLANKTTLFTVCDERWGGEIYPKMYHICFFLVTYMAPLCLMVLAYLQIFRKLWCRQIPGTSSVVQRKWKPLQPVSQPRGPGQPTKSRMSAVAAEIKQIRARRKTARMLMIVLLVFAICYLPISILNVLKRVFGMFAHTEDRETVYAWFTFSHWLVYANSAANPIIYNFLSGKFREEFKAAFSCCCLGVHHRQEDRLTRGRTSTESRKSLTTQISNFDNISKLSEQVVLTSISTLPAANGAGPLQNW

Compound | Ki (human orexin 1 receptor; human orexin 1 receptor radioligand binding, averages of 2-20 runs, read-out: hOX1 Ki) [nM] | Ki (rat orexin 1 receptor; [1]) [nM] | Ki (human orexin 2 receptor) [nM] | Ki (human orexin 1 receptor) [nM] | Ki (rat orexin 1 receptor) [nM]
Cc1ccc(-c2ncco2)c(C(=O)N2CCC[C@@H](Nc3ccc(C(F)(F)F)cn3)[C@@H]2C)n1 (racemic) [Example 22, (±)-trans-(2-methyl-3-((5-(trifluoromethyl)pyridin-2-yl)amino)piperidin-1-yl)(6-methyl-3-(oxazol-2-yl)pyridin-2-yl)methanone hydrochloride] | – | – | – | 21 | 36
Cc1cnc(C(=O)N2CCC[C@@H](Nc3cnc(Cl)cn3)[C@@H]2C)c(-n2nccn2)c1 (relative stereo) [Example 182, ((2S*,3R*)-3-((5-chloropyrazin-2-yl)amino)-2-methylpiperidin-1-yl)(5-methyl-3-(2H-1,2,3-triazol-2-yl)pyridin-2-yl)methanone] | 148 | 93 | – | – | –
COc1ccc(C(=O)N2CCC[C@@H](Nc3ncc(C(F)(F)F)cn3)[C@@H]2C)c(Cl)n1 (relative stereo) [Example 201, (2-chloro-6-methoxypyridin-3-yl)((2S*,3R*)-2-methyl-3-((5-(trifluoromethyl)pyrimidin-2-yl)amino)piperidin-1-yl)methanone] | – | > 10000 | > 10000 | – | –
C[C@H]1[C@H](Oc2ccc(C(F)(F)F)cn2)CCCN1C(=O)c1cccnc1-n1nccn1 [Example 153, (2-(2H-1,2,3-triazol-2-yl)pyridin-3-yl)((2S,3R)-2-methyl-3-((5-(trifluoromethyl)pyridin-2-yl)oxy)piperidin-1-yl)methanone] | – | 353 | > 10000 | – | –
Cc1cnc(-n2nccn2)c(C(=O)N2CCC[C@@H](Oc3ncc(Cl)cn3)[C@@H]2C)c1 [Example 162, ((2S,3R)-3-((5-chloropyrimidin-2-yl)oxy)-2-methylpiperidin-1-yl)(5-methyl-2-(2H-1,2,3-triazol-2-yl)pyridin-3-yl)methanone] | – | 621 | > 10000 | – | –
C[C@H]1[C@H](Oc2cnc(C(F)(F)F)cn2)CCCN1C(=O)c1nccnc1-c1ccccc1 [Example 173, ((2S,3R)-2-methyl-3-((5-(trifluoromethyl)pyrazin-2-yl)oxy)piperidin-1-yl)(3-phenylpyrazin-2-yl)methanone] | – | 423 | 8200 | – | –
C[C@H]1[C@H](Oc2ncc(C(F)(F)F)cn2)CCCN1C(=O)c1nccnc1-c1ccccc1 [Example 178, ((2S,3R)-2-methyl-3-((5-(trifluoromethyl)pyrimidin-2-yl)oxy)piperidin-1-yl)(3-phenylpyrazin-2-yl)methanone] | – | 679 | > 10000 | – | –

The remaining compounds from weak to strong by Ki (rat orexin 1 receptor; [1]), led by results:

Ki (human orexin 1 receptor; human orexin 1 receptor radioligand binding, averages of 2-20 runs, read-out: hOX1 Ki) [nM] | Ki (rat orexin 1 receptor; [1]) [nM] | Ki (human orexin 2 receptor) [nM] | Compound | Ki (human orexin 1 receptor) [nM] | Ki (rat orexin 1 receptor) [nM]
– | 3400 | > 10000 | C[C@H]1[C@H](Oc2cnc(C(F)(F)F)cn2)CCCN1C(=O)c1cccnc1-n1nccn1 [Example 148, (2-(2H-1,2,3-triazol-2-yl)pyridin-3-yl)((2S,3R)-2-methyl-3-((5-(trifluoromethyl)pyrazin-2-yl)oxy)piperidin-1-yl)methanone] | – | –
– | 504 | > 10000 | COc1ccc(C(=O)N2CCC[C@@H](Oc3ncc(C(F)(F)F)cn3)[C@@H]2C)c(-n2nccn2)c1 [Example 174, (4-methoxy-2-(2H-1,2,3-triazol-2-yl)phenyl)((2S,3R)-2-methyl-3-((5-(trifluoromethyl)pyrimidin-2-yl)oxy)piperidin-1-yl)methanone] | – | –
– | 447 | > 10000 | COc1ccc(C(=O)N2CCC[C@@H](Oc3cnc(C(F)(F)F)cn3)[C@@H]2C)c(-n2nccn2)c1 [Example 172, (4-methoxy-2-(2H-1,2,3-triazol-2-yl)phenyl)((2S,3R)-2-methyl-3-((5-(trifluoromethyl)pyrazin-2-yl)oxy)piperidin-1-yl)methanone] | – | –
– | 411 | 5800 | C[C@H]1[C@H](Nc2ncc(C(F)(F)F)cn2)CCCN1C(=O)c1ccc(F)cc1-c1ncco1 (relative stereo) [Example 205, (4-fluoro-2-(oxazol-2-yl)phenyl)((2S*,3R*)-2-methyl-3-((5-(trifluoromethyl)pyrimidin-2-yl)amino)piperidin-1-yl)methanone] | – | –
– | 374 | > 10000 | Cc1cnc(-n2nccn2)c(C(=O)N2CCC[C@@H](Oc3ncc(C(F)(F)F)cn3)[C@@H]2C)c1 [Example 176, (5-methyl-2-(2H-1,2,3-triazol-2-yl)pyridin-3-yl)((2S,3R)-2-methyl-3-((5-(trifluoromethyl)pyrimidin-2-yl)oxy)piperidin-1-yl)methanone] | – | –
– | 332 | 6600 | Cc1noc(-c2cc(F)ccc2C(=O)N2CCC[C@@H](Nc3ncc(C(F)(F)F)cn3)[C@@H]2C)n1 (relative stereo) [Example 197, (4-fluoro-2-(3-methyl-1,2,4-oxadiazol-5-yl)phenyl)((2S*,3R*)-2-methyl-3-((5-(trifluoromethyl)pyrimidin-2-yl)amino)piperidin-1-yl)methanone] | – | –
– | 8 | 2270 | Cc1cnc(C(=O)N2CCC[C@@H](Nc3nc4ccccc4o3)[C@@H]2C)c(-n2nccn2)c1 [Example 73, ((2S,3R)-3-(benzo[d]oxazol-2-ylamino)-2-methylpiperidin-1-yl)(5-methyl-3-(2H-1,2,3-triazol-2-yl)pyridin-2-yl)methanone] | – | –
